ChEMBL document CHEMBL1154299, “Human liver microsomal metabolism of (+)-discodermolide” (J Nat Prod, 2009)

Legend:
Format in all cases: ADME
Liver microsomes [1] = experiment: Metabolic stability in human liver microsome at 10 uM after 15 mins in the absence of NADPH by LC-MS analysis; conditions: 0.25 h
Liver microsomes [2] = experiment: Metabolic stability in heat inactivated human liver microsome at 10 uM after 15 mins in the presence of NADPH by LC-MS analysis; conditions: 0.25 h
Liver microsomes [3] = experiment: Metabolic stability in human liver microsome at 10 uM in the presence of NADPH assessed as level of metabolites after 5 mins by LC-MS analysis
Liver microsomes [4] = experiment: Metabolic stability in human liver microsome at 10 uM in the presence of NADPH assessed as level of metabolites after 1 mins by LC-MS analysis

In the case of `C=C/C=C\[C@H](C)[C@H](OC(N)=O)[C@@H](C)[C@H](O)[C@@H](C)C/C(C)=C\[C@H](C)[C@@H](O)[C@@H](C)/C=C\[C@@H](O)C[C@@H]1OC(=O)[C@H](C)[C@@H](O)[C@H]1C` [DISERMOLIDE], the Stability (Liver microsomes [1]) is reported as “Stable”, the Stability (Liver microsomes [2]) is reported as “Stable” and the Stability (Liver microsomes [3]) is reported as “Unstable”. For the same molecule, the Stability (Liver microsomes [4]) was “Unstable”.
